Key:
Assay type in all cases: cell-based
[1] = biological target: T1, SMARCA4 (Homo sapiens, UniProt P51532); test: SMARCA4 Western blot degradation in MV4-11 cells; conditions: for SMARCA4 MSD MV411 degradation 24 h: average Dmax % / DC50: MV4-11 cells; for DC50 / Dmax: 24 h; for DC50: read-out: SMARCA4 MSD MV411 degradation 24 h: Mean external-Abs DC50; for Dmax: MV4-11, MV4-11 cells, read-out: SMARCA4 MSD MV411 degradation 24 h: average Dmax %
T1 construct: SMARCA2/SMARCA4 protein degradation selectivity in MV4-11 cells; endogenous in cells; host or cells: MV4-11
Method in brief: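 Protein levels quantified by LI-COR Western blot (beta-actin loading control) in RIPA lysates of MV4-11 cells after 24 h compound exposure. Degradation reported as DC50, Dmax % at 24 h and SMARCA2 vs SMARCA4 selectivity, each binned into letter codes.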

[2] = biological target: T2, SMARCA2 (Homo sapiens, UniProt P51531); test: MSD SMARCA2 degradation in A549 cell line; conditions: for SMARCA2 MSD A549 degradation 24 h: Average Dmax % / DC50: A549 cells; for DC50 / Dmax: 24 h; for DC50: read-out: SMARCA2 MSD A549 degradation 24 h: Average external-Abs DC50; for Dmax: A549, A549 cells
Method in brief: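 SMARCA2 protein remaining after 24 h exposure of A549 cells (top concentration 1000 nM, 3-fold dilutions) was measured by MSD electrochemiluminescence immunoassay of cell lysates. Results are given as binned DC50 and maximal degradation (Dmax) codes.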

[3] = biological target: T2, SMARCA2; test: SMARCA2 Western blot degradation in MV4-11 cells; parameters: SMARCA2/SMARCA4 protein degradation selectivity in MV4-11 cells; endogenous in cells; host or cells: MV4-11; conditions: for SMARCA2 MSD MV411 degradation 24 h: average Dmax % / DC50 / Selectivity in MV411: MV4-11 cells; for SMARCA2 MSD MV411 degradation 24 h: average Dmax % / DC50 / Dmax: 24 h; for DC50: read-out: SMARCA2 MSD MV411 degradation 24 h: Mean external-Abs DC50; for Selectivity in MV411: SMARCA2/4 selectivity; for Dmax: MV4-11, MV4-11 cells, read-out: SMARCA2 MSD MV411 degradation 24 h: average Dmax %

T1 sequence (P51532 whole entry): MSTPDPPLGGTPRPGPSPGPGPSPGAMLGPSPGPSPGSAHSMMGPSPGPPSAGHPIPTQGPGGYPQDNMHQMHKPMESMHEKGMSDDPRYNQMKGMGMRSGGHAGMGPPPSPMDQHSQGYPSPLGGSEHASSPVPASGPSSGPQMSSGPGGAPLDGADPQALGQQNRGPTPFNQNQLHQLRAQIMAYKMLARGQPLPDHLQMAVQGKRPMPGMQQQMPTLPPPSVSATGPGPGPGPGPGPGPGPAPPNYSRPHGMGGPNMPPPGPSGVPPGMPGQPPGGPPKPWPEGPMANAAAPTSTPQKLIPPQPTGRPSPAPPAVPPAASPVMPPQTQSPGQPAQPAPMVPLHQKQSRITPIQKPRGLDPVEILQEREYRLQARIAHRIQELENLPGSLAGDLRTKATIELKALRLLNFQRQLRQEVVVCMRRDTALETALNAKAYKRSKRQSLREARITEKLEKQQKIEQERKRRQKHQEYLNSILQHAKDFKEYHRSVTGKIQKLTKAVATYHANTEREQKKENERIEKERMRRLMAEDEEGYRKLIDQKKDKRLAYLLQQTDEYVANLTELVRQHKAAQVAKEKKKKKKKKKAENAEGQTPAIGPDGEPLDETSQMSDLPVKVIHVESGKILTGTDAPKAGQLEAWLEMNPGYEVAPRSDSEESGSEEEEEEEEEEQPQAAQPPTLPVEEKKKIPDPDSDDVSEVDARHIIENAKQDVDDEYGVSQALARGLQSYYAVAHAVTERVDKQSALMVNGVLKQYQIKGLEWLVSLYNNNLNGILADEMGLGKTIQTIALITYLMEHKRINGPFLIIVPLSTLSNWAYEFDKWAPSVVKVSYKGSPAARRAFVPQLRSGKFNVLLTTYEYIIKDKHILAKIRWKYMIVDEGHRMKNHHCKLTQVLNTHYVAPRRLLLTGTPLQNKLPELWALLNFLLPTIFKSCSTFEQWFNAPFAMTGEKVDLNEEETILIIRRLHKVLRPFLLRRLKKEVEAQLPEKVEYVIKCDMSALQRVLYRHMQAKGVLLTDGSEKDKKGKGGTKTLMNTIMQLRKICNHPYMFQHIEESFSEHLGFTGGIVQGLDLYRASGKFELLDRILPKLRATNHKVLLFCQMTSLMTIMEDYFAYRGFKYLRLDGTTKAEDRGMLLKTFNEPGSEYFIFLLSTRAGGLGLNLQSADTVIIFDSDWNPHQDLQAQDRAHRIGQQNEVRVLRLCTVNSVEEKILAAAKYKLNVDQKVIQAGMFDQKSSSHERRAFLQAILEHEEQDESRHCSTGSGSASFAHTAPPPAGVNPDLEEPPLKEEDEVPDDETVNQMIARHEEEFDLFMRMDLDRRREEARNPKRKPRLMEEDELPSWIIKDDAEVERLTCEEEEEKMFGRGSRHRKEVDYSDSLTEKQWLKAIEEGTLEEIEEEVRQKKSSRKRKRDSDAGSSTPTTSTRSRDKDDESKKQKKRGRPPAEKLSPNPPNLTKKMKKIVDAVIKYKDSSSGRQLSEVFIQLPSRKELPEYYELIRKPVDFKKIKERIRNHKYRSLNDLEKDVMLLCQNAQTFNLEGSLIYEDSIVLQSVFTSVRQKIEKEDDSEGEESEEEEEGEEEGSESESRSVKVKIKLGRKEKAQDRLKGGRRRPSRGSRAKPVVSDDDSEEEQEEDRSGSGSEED
T2 sequence (P51531 whole entry): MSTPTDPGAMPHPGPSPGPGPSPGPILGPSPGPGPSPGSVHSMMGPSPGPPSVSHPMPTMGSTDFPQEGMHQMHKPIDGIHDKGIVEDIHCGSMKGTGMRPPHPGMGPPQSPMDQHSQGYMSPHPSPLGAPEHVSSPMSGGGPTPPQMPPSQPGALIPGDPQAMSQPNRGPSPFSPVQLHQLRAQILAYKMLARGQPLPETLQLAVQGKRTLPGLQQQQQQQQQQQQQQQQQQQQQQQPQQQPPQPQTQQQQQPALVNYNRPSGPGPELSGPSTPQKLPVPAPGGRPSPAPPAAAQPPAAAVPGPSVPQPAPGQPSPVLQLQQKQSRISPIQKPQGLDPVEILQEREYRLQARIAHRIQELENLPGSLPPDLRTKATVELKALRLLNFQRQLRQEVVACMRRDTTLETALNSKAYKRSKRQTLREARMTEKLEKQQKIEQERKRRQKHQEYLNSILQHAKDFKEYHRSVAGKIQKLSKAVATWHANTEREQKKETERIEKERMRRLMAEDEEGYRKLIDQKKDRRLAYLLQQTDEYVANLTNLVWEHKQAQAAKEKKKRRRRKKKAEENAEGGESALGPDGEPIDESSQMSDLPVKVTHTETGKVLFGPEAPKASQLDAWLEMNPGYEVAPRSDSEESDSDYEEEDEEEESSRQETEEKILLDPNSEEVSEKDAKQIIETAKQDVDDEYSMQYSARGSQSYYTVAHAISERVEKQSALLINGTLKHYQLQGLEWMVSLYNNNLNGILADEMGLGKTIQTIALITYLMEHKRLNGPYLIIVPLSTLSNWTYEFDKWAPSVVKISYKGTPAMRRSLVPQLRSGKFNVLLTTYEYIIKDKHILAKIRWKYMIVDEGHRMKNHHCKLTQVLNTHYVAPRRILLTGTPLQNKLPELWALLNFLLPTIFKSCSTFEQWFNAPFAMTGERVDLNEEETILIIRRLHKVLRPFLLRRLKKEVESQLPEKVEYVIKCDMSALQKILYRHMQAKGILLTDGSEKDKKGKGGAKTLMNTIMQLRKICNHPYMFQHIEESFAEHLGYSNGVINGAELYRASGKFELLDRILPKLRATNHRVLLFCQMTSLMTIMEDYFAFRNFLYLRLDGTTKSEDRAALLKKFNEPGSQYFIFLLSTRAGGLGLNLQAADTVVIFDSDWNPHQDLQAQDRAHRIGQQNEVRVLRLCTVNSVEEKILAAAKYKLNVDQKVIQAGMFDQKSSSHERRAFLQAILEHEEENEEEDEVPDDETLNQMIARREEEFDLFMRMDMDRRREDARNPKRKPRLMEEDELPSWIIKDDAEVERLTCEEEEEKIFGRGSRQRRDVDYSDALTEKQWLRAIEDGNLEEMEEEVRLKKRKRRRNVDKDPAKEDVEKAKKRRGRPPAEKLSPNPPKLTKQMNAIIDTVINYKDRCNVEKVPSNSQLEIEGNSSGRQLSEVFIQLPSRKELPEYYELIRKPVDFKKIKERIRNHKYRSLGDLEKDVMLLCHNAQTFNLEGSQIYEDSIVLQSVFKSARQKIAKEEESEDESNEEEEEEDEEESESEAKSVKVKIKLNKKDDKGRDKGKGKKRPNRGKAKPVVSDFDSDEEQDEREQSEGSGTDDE

## C#Cc1ccc(CNC(=O)[C@@H]2C[C@@H](O)CN2C(=O)[C@@H](NC(=O)[C@H]2CCC3(CC2)C[C@H](N2CCC(c4cnc(N5CCN6c7cc(-c8ccccc8O)nnc7NC[C@H]6C5)nc4)CC2)C3)C(C)(C)C)c(F)c1 (single isomer, unassigned) [I-116]
[1]
  SMARCA4 MSD MV411 degradation 24 h: average Dmax %: D (D (<50% degradation))
  DC50: > 100 nM
[2]
  SMARCA2 MSD A549 degradation 24 h: Average Dmax %: A (A (>90% degradation))
  DC50: 10 to 50 nM
[3]
  SMARCA2 MSD MV411 degradation 24 h: average Dmax %: B (B (>70-90% degradation))
  DC50: 1 to 10 nM
  Selectivity in MV411: B (B (>100-500 fold))

## CC#Cc1ccc(CNC(=O)[C@@H]2C[C@@H](O)CN2C(=O)[C@@H](NC(=O)[C@H]2CCC3(CC2)C[C@H](N2CCC(c4cnc(N5CCN6c7cc(-c8ccccc8O)nnc7NC[C@H]6C5)nc4)CC2)C3)C(C)(C)C)cc1 (single isomer, unassigned) [I-117]
[1]
  SMARCA4 MSD MV411 degradation 24 h: average Dmax %: D (D (<50% degradation))
  DC50: > 100 nM
[2]
  SMARCA2 MSD A549 degradation 24 h: Average Dmax %: A (A (>90% degradation))
  DC50: > 100 nM
[3]
  SMARCA2 MSD MV411 degradation 24 h: average Dmax %: C (C (50-70% degradation))
  DC50: 10 to 100 nM
  Selectivity in MV411: C (C (10-100 fold))

## C#Cc1ccc(CNC(=O)[C@@H]2C[C@@H](O)CN2C(=O)[C@@H](NC(=O)[C@H]2CCC3(CC2)C[C@H](N2CCN(c4cnc(N5CCN6c7cc(-c8ccccc8O)nnc7NC[C@H]6C5)nc4)CC2)C3)C(C)(C)C)cc1 (single isomer, unassigned) [I-122]
[1]
  Dmax: 50 to 70%
  DC50: 10 to 100 nM
[2]
  Dmax: > 90%
  DC50: 10 to 50 nM
[3]
  Dmax: 70 to 90%
  DC50: 1 to 10 nM
  Selectivity in MV411: C (C (10-100 fold))

## C#Cc1ccc(CNC(=O)[C@@H]2C[C@@H](O)CN2C(=O)[C@@H](NC(=O)[C@H]2CCC3(CC2)C[C@H](N2CCC(c4cnc(N5CCN6c7cc(-c8ccccc8O)nnc7NC[C@H]6C5)nc4)CC2)C3)C(C)(C)C)c(OC)c1 (single isomer, unassigned) [I-125]
[1]
  SMARCA4 MSD MV411 degradation 24 h: average Dmax %: C (C (50-70% degradation))
  DC50: > 100 nM
[2]
  Dmax: > 90%
  DC50: < 10 nM
[3]
  SMARCA2 MSD MV411 degradation 24 h: average Dmax %: B (B (>70-90% degradation))
  DC50: 1 to 10 nM
  Selectivity in MV411: C (C (10-100 fold))

## Cc1cc(Cl)ccc1C#CCNC(=O)[C@@H]1C[C@@H](O)CN1C(=O)[C@@H](NC(=O)[C@H]1CCC2(CC1)C[C@H](N1CCC(c3cnc(N4CCN5c6cc(-c7ccccc7O)nnc6NC[C@H]5C4)nc3)CC1)C2)C(C)(C)C (single isomer, unassigned) [I-126]
[1]
  SMARCA4 MSD MV411 degradation 24 h: average Dmax %: D (D (<50% degradation))
  DC50: > 100 nM
[2]
  SMARCA2 MSD A549 degradation 24 h: Average Dmax %: D (D (<50% degradation))
  DC50: > 100 nM
[3]
  SMARCA2 MSD MV411 degradation 24 h: average Dmax %: D (D (<50% degradation))
  DC50: > 100 nM
  Selectivity in MV411: C (C (10-100 fold))

## C#Cc1ccc(CNC(=O)[C@@H]2C[C@@H](O)CN2C(=O)[C@@H](NC(=O)[C@H]2CCC3(CC2)C[C@H](N2CCC(c4cnc(N5CCN6c7cc(-c8ccccc8O)nnc7NC[C@H]6C5)nc4)CC2)C3)C(C)(C)C)c(OCCCN(C)C)c1 (single isomer, unassigned) [I-129]
[1]
  Dmax: > 90%
  DC50: 10 to 100 nM
[2]
  Dmax: > 90%
  DC50: 10 to 50 nM
[3]
  Dmax: > 90%
  DC50: 1 to 10 nM
  Selectivity in MV411: C (C (10-100 fold))

## C#Cc1ccc(CNC(=O)[C@@H]2C[C@@H](O)CN2C(=O)[C@@H](NC(=O)[C@H]2CCC3(CC2)C[C@H](N2CCC(c4cnc(N5CCN6c7cc(-c8ccccc8O)nnc7NC[C@H]6C5)nc4)CC2)C3)C(C)(C)C)c(OCCCOC)c1 (single isomer, unassigned) [I-130]
[1]
  Dmax: > 90%
  DC50: 10 to 100 nM
[2]
  Dmax: > 90%
  DC50: < 10 nM
[3]
  Dmax: > 90%
  DC50: 1 to 10 nM
  Selectivity in MV411: D (D (<10 fold))

## C#Cc1ccc(CNC(=O)[C@@H]2C[C@@H](O)CN2C(=O)[C@@H](NC(=O)[C@H]2CCC3(CC2)C[C@H](N2CCC(c4cnc(N5CCN6c7cc(-c8ccccc8O)nnc7NC[C@H]6C5)nc4)CC2)C3)C(C)(C)CCO)cc1 (single isomer, unassigned) [I-131]
[1]
  Dmax: 50 to 70%
  DC50: 10 to 100 nM
[2]
  Dmax: > 90%
  DC50: 10 to 50 nM
[3]
  Dmax: > 90%
  DC50: < 1 nM
  Selectivity in MV411: C (C (10-100 fold))

## Cc1ncsc1-c1ccc(CNC(=O)[C@@H]2C[C@@H](O)CN2C(=O)[C@@H](NC(=O)[C@H]2CCC3(CC2)C[C@H](N2CCC4(CC2)CN(C(=O)N2CCN5c6cc(-c7ccccc7O)nnc6NC[C@H]5C2)CCO4)C3)C(C)(C)C)cc1 (single isomer, unassigned) [I-133]
[1]
  Dmax: 50 to 70%
  DC50: > 100 nM
[2]
  Dmax: 70 to 90%
  DC50: > 100 nM
[3]
  Dmax: 70 to 90%
  DC50: 10 to 100 nM
  Selectivity in MV411: C (C (10-100 fold))

## C#Cc1ccc(CNC(=O)[C@@H]2C[C@@H](O)CN2C(=O)[C@@H](NC(=O)[C@H]2CCC3(CC2)C[C@H](N2CCC(c4cnc(N5CCN6c7cc(-c8ccccc8O)nnc7NC[C@H]6C5)nc4)CC2)C3)C(C)(C)C)c(OCCCOC)c1 (single isomer, unassigned) [I-149]
[1]
  SMARCA4 MSD MV411 degradation 24 h: average Dmax %: A (A (>90% degradation))
  DC50: 10 to 100 nM
[2]
  SMARCA2 MSD A549 degradation 24 h: Average Dmax %: A (A (>90% degradation))
  DC50: 10 to 50 nM
[3]
  SMARCA2 MSD MV411 degradation 24 h: average Dmax %: A (A (>90% degradation))
  DC50: 1 to 10 nM
  Selectivity in MV411: D (D (<10 fold))

## C#Cc1ccc(CNC(=O)[C@@H]2C[C@@H](O)CN2C(=O)[C@@H](NC(=O)[C@H]2CCC3(CC2)C[C@H](N2CCC(c4ccc(N5CCN6c7cc(-c8ccccc8O)nnc7NC[C@H]6C5)nc4)CC2)C3)C(C)(C)C)cc1 (single isomer, unassigned) [I-155]
[1]
  Dmax: < 50%
  DC50: > 100 nM
[2]
  Dmax: > 90%
  DC50: 10 to 50 nM
[3]
  Dmax: 70 to 90%
  DC50: 1 to 10 nM
  Selectivity in MV411: A (A (>500 fold))

## C#Cc1ccc(CNC(=O)[C@@H]2C[C@@H](O)CN2C(=O)[C@@H](NC(=O)[C@H]2CCC3(CC2)C[C@H](N2CCC(c4ccc(N5CCN6c7cc(-c8ccccc8O)nnc7NC[C@H]6C5)nc4)CC2)C3)C(C)(C)C)cc1 (single isomer, unassigned) [I-156]
[1]
  SMARCA4 MSD MV411 degradation 24 h: average Dmax %: B (B (>70-90% degradation))
  DC50: 10 to 100 nM
[2]
  SMARCA2 MSD A549 degradation 24 h: Average Dmax %: A (A (>90% degradation))
  DC50: 10 to 50 nM
[3]
  SMARCA2 MSD MV411 degradation 24 h: average Dmax %: B (B (>70-90% degradation))
  DC50: 1 to 10 nM
  Selectivity in MV411: C (C (10-100 fold))

## C#Cc1ccc(CNC(=O)[C@@H]2C[C@@H](O)CN2C(=O)[C@@H](NC(=O)[C@H]2CCC3(CC2)C[C@H](N2CCC(c4cnc(N5CCN6c7cc(-c8ccccc8O)nnc7NC[C@H]6C5)nc4)CC2)C3)C(C)(C)C)c(OCCCN(C)C)c1 (single isomer, unassigned) [I-158]
[1]
  SMARCA4 MSD MV411 degradation 24 h: average Dmax %: B (B (>70-90% degradation))
  DC50: 10 to 100 nM
[2]
  SMARCA2 MSD A549 degradation 24 h: Average Dmax %: A (A (>90% degradation))
  DC50: 50 to 100 nM
[3]
  SMARCA2 MSD MV411 degradation 24 h: average Dmax %: B (B (>70-90% degradation))
  DC50: 1 to 10 nM
  Selectivity in MV411: C (C (10-100 fold))

## C#Cc1ccc(CNC(=O)[C@@H]2C[C@@H](O)CN2C(=O)[C@@H](NC(=O)N2CCN(C[C@@H]3CCN(c4cnc(N5CCc6[nH]c7nnc(-c8ccccc8O)cc7c6[C@H]5C)nc4)C3)CC2)C(C)(C)C)cc1 (single isomer, unassigned) [I-161]
[1]
  Dmax: 50 to 70%
  DC50: > 100 nM
[2]
  Dmax: > 90%
  DC50: > 100 nM
[3]
  Dmax: 50 to 70%
  DC50: 10 to 100 nM
  Selectivity in MV411: C (C (10-100 fold))

## C#Cc1ccc(CNC(=O)[C@@H]2C[C@@H](O)CN2C(=O)[C@@H](NC(=O)N2CCN(C[C@H]3CCN(c4cnc(N5CCc6[nH]c7nnc(-c8ccccc8O)cc7c6[C@H]5C)nc4)C3)CC2)C(C)(C)C)cc1 (single isomer, unassigned) [I-162]
[1]
  Dmax: 50 to 70%
  DC50: > 100 nM
[2]
  Dmax: > 90%
  DC50: > 100 nM
[3]
  Dmax: 50 to 70%
  DC50: 10 to 100 nM
  Selectivity in MV411: C (C (10-100 fold))

## C#Cc1ccc(CNC(=O)[C@@H]2C[C@@H](O)CN2C(=O)[C@@H](NC(=O)[C@H]2CCC3(CC2)C[C@H](N2CCN(c4cnc(N5CCN6c7cc(-c8ccccc8O)nnc7NC[C@H]6C5)nc4)CC2)C3)C(C)(C)C)cc1 (single isomer, unassigned) [I-170]
[1]
  SMARCA4 MSD MV411 degradation 24 h: average Dmax %: C (C (50-70% degradation))
  DC50: > 100 nM
[2]
  SMARCA2 MSD A549 degradation 24 h: Average Dmax %: A (A (>90% degradation))
  DC50: 10 to 50 nM
[3]
  SMARCA2 MSD MV411 degradation 24 h: average Dmax %: B (B (>70-90% degradation))
  DC50: 1 to 10 nM
  Selectivity in MV411: C (C (10-100 fold))

Reference: patent publication US20250170248A1, “SMARCA DEGRADERS AND USES THEREOF” (Kymera Therapeutics, Inc., priority 2021, published 2025)
